US4684664A, “Derivatives of β-(4-isocyano-1,2,3,4-diepoxycyclopentyl) acrylic acid” (Kureha Kagaku Kogyo Kabushiki Kaisha, priority 1984, dated 1987)
In brackets after ≈: the same amount, converted by molar mass.

Assays:
Assay type in all cases: cell-based
[1] = system: Staphylococcus aureus MS 353; experiment: Antibacterial activity, agar-dilution MIC, organism No. 3; conditions: Staphylococcus aureus, MS353; Organism No. 3, bouillon-agar; read-out: Minimum Inhibitory Concentration
In short: (§1)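 Read-out is the minimum inhibitory concentration, given as μg/ml of the culture medium, obtained by agar dilution using bouillon agar.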

[2] = system: Streptococcus faecium IFO 3826; experiment: Antibacterial activity, agar-dilution MIC, organism No. 27; conditions: Enterococcus faecium, IFO3826; Organism No. 27, bouillon-agar; read-out: Minimum Inhibitory Concentration
In short: as §1

[3] = system: Staphylococcus aureus Terajima; experiment: Antibacterial activity, agar-dilution MIC, organism No. 2; conditions: Staphylococcus aureus; Organism No. 2, bouillon-agar; read-out: Minimum Inhibitory Concentration
In short: as §1

[4] = system: Candida albicans IAM 4905; experiment: Antifungal activity, agar-dilution MIC, organism No. 29; conditions: Candida albicans, IAM4905; Organism No. 29, bouillon-agar; read-out: Minimum Inhibitory Concentration
In short: as §1

[5] = system: Aspergillus niger IFO 6342; experiment: Antifungal activity, agar-dilution MIC, organism No. 30; conditions: Aspergillus niger, IFO6342; Organism No. 30, bouillon-agar; read-out: Minimum Inhibitory Concentration
In short: as §1

[6] = system: Enterobacter aerogenes ATCC 13048; experiment: Antibacterial activity, agar-dilution MIC, organism No. 23; conditions: Klebsiella aerogenes, ATCC13048; Organism No. 23, bouillon-agar; read-out: Minimum Inhibitory Concentration
In short: as §1

[7] = system: Pseudomonas aeruginosa PAO 1; experiment: Antibacterial activity, agar-dilution MIC, organism No. 17; conditions: Pseudomonas aeruginosa, PAO1; Organism No. 17, bouillon-agar; read-out: Minimum Inhibitory Concentration
In short: as §1

[8] = system: Serratia marcescens IAM 1184; experiment: Antibacterial activity, agar-dilution MIC, organism No. 13; conditions: Serratia marcescens, IAM1184; Organism No. 13, bouillon-agar; read-out: Minimum Inhibitory Concentration
In short: as §1

[9] = system: Proteus rettgeri IFO 3850; experiment: Antibacterial activity, agar-dilution MIC, organism No. 22; conditions: Providencia rettgeri, IFO3850; Organism No. 22, bouillon-agar; read-out: Minimum Inhibitory Concentration
In short: as §1

[10] = system: Klebsiella pneumoniae PCI-602; experiment: Antibacterial activity, agar-dilution MIC, organism No. 7; conditions: Klebsiella pneumoniae, PCI602; Organism No. 7, bouillon-agar; read-out: Minimum Inhibitory Concentration
In short: as §1

[11] = system: Micrococcus luteus ATCC 9341; experiment: Antibacterial activity, agar-dilution MIC, organism No. 25; conditions: Micrococcus luteus, ATCC9341; Organism No. 25, bouillon-agar; read-out: Minimum Inhibitory Concentration
In short: as §1

[12] = system: Bacillus subtilis ATCC 6633; experiment: Antibacterial activity, agar-dilution MIC, organism No. 14; conditions: Bacillus subtilis, ATCC6633; Organism No. 14, bouillon-agar; read-out: Minimum Inhibitory Concentration
In short: as §1

[13] = system: Pseudomonas aeruginosa IFO 3445; experiment: Antibacterial activity, agar-dilution MIC, organism No. 15; conditions: Pseudomonas aeruginosa, IFO3445; Organism No. 15, bouillon-agar; read-out: Minimum Inhibitory Concentration
In short: as §1

[14] = system: Escherichia coli NIHJ-JC-2; experiment: Antibacterial activity, agar-dilution MIC, organism No. 5; conditions: Escherichia coli, NIHJJC2; Organism No. 5, bouillon-agar; read-out: Minimum Inhibitory Concentration
In short: as §1

[15] = system: Salmonella enteritidis G 14; experiment: Antibacterial activity, agar-dilution MIC, organism No. 12; conditions: Salmonella enterica, ENTERITIDIS; Organism No. 12, bouillon-agar; read-out: Minimum Inhibitory Concentration
In short: as §1

[16] = system: Staphylococcus aureus FDA 209PJc-1; experiment: Antibacterial activity, agar-dilution MIC, organism No. 1; conditions: Staphylococcus aureus, FDA209PJC1; Organism No. 1, bouillon-agar; read-out: Minimum Inhibitory Concentration
In short: as §1

[17] = system: Proteus morganii IFO 3848; experiment: Antibacterial activity, agar-dilution MIC, organism No. 18; conditions: Morganella morganii, IFO3848; Organism No. 18, bouillon-agar; read-out: Minimum Inhibitory Concentration
In short: as §1

[18] = system: Pseudomonas aeruginosa NCTC 10490; experiment: Antibacterial activity, agar-dilution MIC, organism No. 16; conditions: Pseudomonas aeruginosa, NCTC10490; Organism No. 16, bouillon-agar; read-out: Minimum Inhibitory Concentration
In short: as §1

[19] = system: Streptococcus pyogenes Cook; experiment: Antibacterial activity, agar-dilution MIC, organism No. 4; conditions: Streptococcus pyogenes; Organism No. 4, bouillon-agar; read-out: Minimum Inhibitory Concentration
In short: as §1

[20] = system: Salmonella paratyphi-A 1015; experiment: Antibacterial activity, agar-dilution MIC, organism No. 10; conditions: Salmonella enterica, PARATYPHI, read-out: Minimum Inhibitory Concentration
In short: as §1

Salmonella typhi 901 = experiment: Antibacterial activity, agar-dilution MIC, organism No. 9; conditions: Salmonella enterica, TYPHI, read-out: Minimum Inhibitory Concentration
In short: as §1

[21] = system: Proteus mirabilis IFO 3849; experiment: Antibacterial activity, agar-dilution MIC, organism No. 19; conditions: Proteus mirabilis, IFO3849; Organism No. 19, bouillon-agar; read-out: Minimum Inhibitory Concentration
In short: as §1

Enterobacter cloacae 963 = experiment: Antibacterial activity, agar-dilution MIC, organism No. 24; conditions: Enterobacter cloacae, 963; Organism No. 24, bouillon-agar; read-out: Minimum Inhibitory Concentration
In short: as §1

Proteus vulgaris HX-19 = experiment: Antibacterial activity, agar-dilution MIC, organism No. 21; conditions: Proteus vulgaris, HX19; Organism No. 21, bouillon-agar; read-out: Minimum Inhibitory Concentration
In short: as §1

[22] = system: Salmonella shottmuelleri 8006; experiment: Antibacterial activity, agar-dilution MIC, organism No. 11; conditions: Salmonella, 8006; Organism No. 11, bouillon-agar; read-out: Minimum Inhibitory Concentration
In short: as §1

[23] = system: Mycoplasma pneumoniae IID817; experiment: Antimycoplasmal activity, MIC by phenol red colour change, organism No. 28; conditions: Mycoplasma, IID817; Organism No. 28, PPLO broth + 1% glucose, 37° C.; read-out: Minimum Inhibitory Concentration (MIC)
Description: Mycoplasma pneumoniae IID817 was used as the test microorganism in a culture medium prepared by adding 1% of glucose to "PPLO broth (manufactured by Difco Co.) liquid culture medium" at 37° C. with phenol red as an indicator, thereby culturing the test microorganism.

[24] = system: Salmonella typhimurium IID 971; experiment: Antibacterial activity, agar-dilution MIC, organism No. 8; conditions: Salmonella enterica; Organism No. 8, bouillon-agar; read-out: Minimum Inhibitory Concentration
In short: as §1

[25] = system: Streptococcus pyogenes IFO 3340; experiment: Antibacterial activity, agar-dilution MIC, organism No. 26; conditions: Streptococcus pyogenes, IFO3340; Organism No. 26, bouillon-agar; read-out: Minimum Inhibitory Concentration
In short: as §1

[26] = system: Escherichia coli K12 C600 IAM 1264; experiment: Antibacterial activity, agar-dilution MIC, organism No. 6; conditions: Escherichia coli, IAM1264; Organism No. 6, bouillon-agar; read-out: Minimum Inhibitory Concentration
In short: as §1

Proteus vulgaris OX-19 = experiment: Antibacterial activity, agar-dilution MIC, organism No. 20; conditions: Proteus vulgaris, OX19; Organism No. 20, bouillon-agar; read-out: Minimum Inhibitory Concentration
In short: as §1

SMILES | MIC [1] | MIC [2] | MIC [3] | MIC [4] | MIC [5] | MIC [6] | MIC [7] | MIC [8] | MIC [9] | MIC [10] | MIC [11] | MIC [12] | MIC [13] | MIC [14] | MIC [15] | MIC [16] | MIC [17] | MIC [18] | MIC [19] | MIC [20] | other results
[C-]#[N+]C12CC3(/C=C/C(=O)Nc4ccc(C(=O)O)cc4)OC3C1O2 (stereo not drawn) [compound 51] | 6.25 µg/mL (≈ 20 µM) | 12.5 µg/mL (≈ 40 µM) | 12.5 µg/mL (≈ 40 µM) | 100 µg/mL (≈ 320 µM) | 100 µg/mL (≈ 320 µM) | > 200 µg/mL | > 200 µg/mL | > 200 µg/mL | > 200 µg/mL | 100 µg/mL (≈ 320 µM) | 1.56 µg/mL (≈ 5 µM) | 50 µg/mL (≈ 160 µM) | > 200 µg/mL | 200 µg/mL (≈ 640 µM) | 50 µg/mL (≈ 160 µM) | 12.5 µg/mL (≈ 40 µM) | 1.56 µg/mL (≈ 5 µM) | > 200 µg/mL | 12.5 µg/mL (≈ 40 µM) | 50 µg/mL (≈ 160 µM) | MIC (Salmonella typhi 901): 50 µg/mL (≈ 160 µM); MIC [21]: > 200 µg/mL; MIC (Enterobacter cloacae 963): > 200 µg/mL; MIC (Proteus vulgaris HX-19): 12.5 µg/mL (≈ 40 µM); MIC [22]: 50 µg/mL (≈ 160 µM); MIC [23]: < 0.2 µg/mL; MIC [24]: 100 µg/mL (≈ 320 µM); MIC [25]: 25 µg/mL (≈ 80.1 µM); MIC [26]: 200 µg/mL (≈ 640 µM); MIC (Proteus vulgaris OX-19): 12.5 µg/mL (≈ 40 µM)
[C-]#[N+]C12CC3(/C=C/C(=O)OCC(=O)c4cccc(OC)c4)OC3C1O2 (stereo not drawn) [compound 7] | 0.39 µg/mL (≈ 1.14 µM) | 6.25 µg/mL (≈ 18.3 µM) | 6.25 µg/mL (≈ 18.3 µM) | 1.56 µg/mL (≈ 4.57 µM) | 3.13 µg/mL (≈ 9.17 µM) | > 100 µg/mL | > 100 µg/mL | 25 µg/mL (≈ 73.2 µM) | > 100 µg/mL | 3.13 µg/mL (≈ 9.17 µM) | 0.39 µg/mL (≈ 1.14 µM) | 6.25 µg/mL (≈ 18.3 µM) | > 100 µg/mL | 25 µg/mL (≈ 73.2 µM) | 12.5 µg/mL (≈ 36.6 µM) | 0.39 µg/mL (≈ 1.14 µM) | 12.5 µg/mL (≈ 36.6 µM) | > 100 µg/mL | 12.5 µg/mL (≈ 36.6 µM) | 12.5 µg/mL (≈ 36.6 µM) | MIC (Salmonella typhi 901): 6.25 µg/mL (≈ 18.3 µM); MIC [21]: 12.5 µg/mL (≈ 36.6 µM); MIC (Enterobacter cloacae 963): > 100 µg/mL; MIC (Proteus vulgaris HX-19): 0.39 µg/mL (≈ 1.14 µM); MIC [22]: 6.25 µg/mL (≈ 18.3 µM); MIC [23]: < 0.2 µg/mL; MIC [24]: 25 µg/mL (≈ 73.2 µM); MIC [25]: 12.5 µg/mL (≈ 36.6 µM); MIC [26]: 12.5 µg/mL (≈ 36.6 µM); MIC (Proteus vulgaris OX-19): 1.56 µg/mL (≈ 4.57 µM)
[C-]#[N+]C12CC3(/C=C/C(=O)OCC(=O)c4ccc(C)cc4)OC3C1O2 (stereo not drawn) [compound 6] | 0.78 µg/mL (≈ 2.4 µM) | 25 µg/mL (≈ 76.8 µM) | 25 µg/mL (≈ 76.8 µM) | 0.8 µg/mL (≈ 2.46 µM) | 3.13 µg/mL (≈ 9.62 µM) | > 100 µg/mL | > 100 µg/mL | > 100 µg/mL | > 100 µg/mL | 50 µg/mL (≈ 154 µM) | 0.39 µg/mL (≈ 1.2 µM) | 100 µg/mL (≈ 307 µM) | > 100 µg/mL | > 100 µg/mL | > 100 µg/mL | 0.39 µg/mL (≈ 1.2 µM) | 12.5 µg/mL (≈ 38.4 µM) | > 100 µg/mL | > 100 µg/mL | > 100 µg/mL | MIC (Salmonella typhi 901): 50 µg/mL (≈ 154 µM); MIC [21]: > 100 µg/mL; MIC (Enterobacter cloacae 963): > 100 µg/mL; MIC (Proteus vulgaris HX-19): 0.2 µg/mL (≈ 0.615 µM); MIC [22]: 50 µg/mL (≈ 154 µM); MIC [23]: < 0.2 µg/mL; MIC [24]: > 100 µg/mL; MIC [25]: < 100 µg/mL; MIC [26]: > 100 µg/mL; MIC (Proteus vulgaris OX-19): 1.56 µg/mL (≈ 4.8 µM)
[C-]#[N+]C12CC3(/C=C/C(=O)Nc4ccc(I)cc4)OC3C1O2 (stereo not drawn) [compound 45] | 12.5 µg/mL (≈ 31.7 µM) | > 200 µg/mL | > 200 µg/mL | 3.13 µg/mL (≈ 7.94 µM) | 3.13 µg/mL (≈ 7.94 µM) | > 200 µg/mL | > 200 µg/mL | > 200 µg/mL | > 200 µg/mL | 6.25 µg/mL (≈ 15.9 µM) | < 0.05 µg/mL | > 200 µg/mL | > 200 µg/mL | > 200 µg/mL | > 200 µg/mL | 12.5 µg/mL (≈ 31.7 µM) | 100 µg/mL (≈ 254 µM) | > 200 µg/mL | > 200 µg/mL | > 200 µg/mL | MIC (Salmonella typhi 901): > 200 µg/mL; MIC [21]: > 200 µg/mL; MIC (Enterobacter cloacae 963): > 200 µg/mL; MIC (Proteus vulgaris HX-19): 0.78 µg/mL (≈ 1.98 µM); MIC [22]: 50 µg/mL (≈ 127 µM); MIC [23]: < 0.2 µg/mL; MIC [24]: > 200 µg/mL; MIC [25]: > 200 µg/mL; MIC [26]: > 200 µg/mL; MIC (Proteus vulgaris OX-19): 0.78 µg/mL (≈ 1.98 µM)
